Experimental data reported in patent publication US20240287046A1, “COMPOUNDS AND RADIOLIGANDS FOR TARGETING NEUROTENSIN RECEPTOR AND USES THEREOF” (Full-Life Technologies HK Limited, priority 2022, published 2024).

Legend:
[1] = Stability of ^177Lu labeled complexes in PBS by radio-HPLC; assay type: physicochemical; settings: incubation at room temperature over 120 h in PBS (pH 7.4) or PBS with 3 mg/mL ascorbic acid
Protocol: Exemplary compounds of the present application were labeled with ^177Lu to evaluate stability of the compounds after radionuclide labeling. Briefly, 4 μL exemplary compounds in DMSO stock solution (2000 μM) and 2 mCi ^177Lu (ITM Isotope Technologies Munich) were mixed together in 0.5 M NaOAc buffer (20-50 μL, pH=4.5), followed by incubation at 95° C. for 15 min. Then the labeled complexes were subject to radio-TLC analysis (a polyamide film using methanol and 1M ammonium acetate as the mobile phase, v/v: 4:1, detected by Mini Scan) and radio-HPLC analysis (column: Shim-pack GIST 5 μm 4.6*150 mm; buffer A: 0.2% formic acid H2O; buffer B: 0.1% formic acid acetonitrile; flow rate: 1 mL/min; gradient: 0-5 min: 10% B to 95% B; then 5-8 min: 95% B).
After radionuclide labeling, the complexes were diluted to ˜1.5 mCi/0.30 mL by PBS (pH 7.4) or PBS with 3 mg/mL ascorbic acid (pH 7.4). Then the diluted samples were incubated at room temperature, followed by stability analysis via radio-HPLC at 0, 4, 24, 48, 72, 120 h of incubation, respectively. FIG. 1 illustrates stability analysis of a representative complex ^177Lu—I-7.

[2] = system: ASPC-1 tumor-bearing mice; assay: Biodistribution of radionuclide labeled complexes in ASPC-1 tumor-bearing mice; assay type: in vivo, BALB/c nude mice
Method in brief: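 Radiolabeled compound (~30-50 μCi, ~1.11-1.85 MBq, specific activity 30-250 μCi/nmol) was injected i.v. via tail vein into nude mice carrying 0.05-0.50 g subcutaneous NTSR-1-positive human tumors. At set times, tissues were collected, weighed and γ-counted; % ID and % ID/g were calculated.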

[3] = system: HT-29 tumor-bearing mice; assay: Biodistribution of radionuclide labeled complexes in HT-29 tumor-bearing mice; assay type: in vivo, BALB/c nude mice; settings: Blood
Protocol: The BALB/c nude mice (Charles River, Beijing) were utilized to establish the xenografted model for biodistribution study. All animal care and experimental procedure were performed by following the animal protocols approved by the ethics committee of China Institute of Radiation Protection.
Briefly, each mouse was inoculated with approximately 4×10^6 ASPC-1 cells (human pancreatic cancer cell line) or HT-29 cells (human colorectal adenocarcinoma cell line) expressing human NTSR-1 by subcutaneous injection at rear flank. After inoculation, the xenografted tumors were allowed to grow for ˜2-4 weeks till the tumor weight reached to about 0.05 to 0.50 g (0.20 g in average).
Biodistribution studies were performed by administrating the radionuclide labeled test compound at a dose of ˜30-50 μCi (100 μL in 0.9% NaCl, ˜1.11-1.85 MBq, with specific activity 30-250 μCi/nmol) to each animal through tail vein injection.
At different time points after the administration, the mice treated with each compound were euthanized. The tissues and organs of the animals in each group were collected, excised, weighed, and analyzed in a PerkinElmer 2480 WIZARD2γ counter, and the percent injected dose (% ID) and % ID/g of each organ or tissue were calculated.

tumor AUC over 72 hours compared to ^177Lu—C2 [2]: significantly higher tumor AUC | % ID/g (1 h) Blood ([2]; Blood, 1 h): 9.79 ± 1.66 % ID/g | % ID/g (4 h) Blood ([2]; Blood, 4 h): 1.8 ± 0.62 % ID/g | % ID/g (24 h) Blood ([2]; Blood, 24 h): 0.07 ± 0.01 % ID/g | % ID/g (72 h) Blood ([2]; Blood, 72 h): 0.01 ± 0 % ID/g | % ID/g (1 h) Femur ([2]; Femur, 1 h): 1.65 ± 0.23 % ID/g | % ID/g (4 h) Femur ([2]; Femur, 4 h): 0.49 ± 0.25 % ID/g | % ID/g (24 h) Femur ([2]; Femur, 24 h): 0.12 ± 0.04 % ID/g | % ID/g (72 h) Femur ([2]; Femur, 72 h): 0.06 ± 0.03 % ID/g | % ID/g (1 h) Heart ([2]; Heart, 1 h): 3.47 ± 0.56 % ID/g | % ID/g (4 h) Heart ([2]; Heart, 4 h): 0.58 ± 0.32 % ID/g | % ID/g (24 h) Heart ([2]; Heart, 24 h): 0.29 ± 0.14 % ID/g | % ID/g (72 h) Heart ([2]; Heart, 72 h): 0.08 ± 0.01 % ID/g | % ID/g (1 h) Intestine ([2]; Intestine, 1 h): 2.53 ± 0.58 % ID/g | % ID/g (4 h) Intestine ([2]; Intestine, 4 h): 1.69 ± 0.45 % ID/g | % ID/g (24 h) Intestine ([2]; Intestine, 24 h): 0.62 ± 0.04 % ID/g | % ID/g (72 h) Intestine ([2]; Intestine, 72 h): 0.19 ± 0.07 % ID/g | % ID/g (1 h) Kidney ([2]; Kidney, 1 h): 2.85 ± 0.45 % ID/g | % ID/g (4 h) Kidney ([2]; Kidney, 4 h): 2.05 ± 0.48 % ID/g | % ID/g (24 h) Kidney ([2]; Kidney, 24 h): 1.2 ± 0.17 % ID/g | % ID/g (72 h) Kidney ([2]; Kidney, 72 h): 0.48 ± 0.12 % ID/g | % ID/g (1 h) Liver ([2]; Liver, 1 h): 3.93 ± 0.43 % ID/g | % ID/g (4 h) Liver ([2]; Liver, 4 h): 1.88 ± 1.00 % ID/g | % ID/g (24 h) Liver ([2]; Liver, 24 h): 0.84 ± 0.09 % ID/g | % ID/g (72 h) Liver ([2]; Liver, 72 h): 0.23 ± 0.01 % ID/g | % ID/g (1 h) Lung ([2]; Lung, 1 h): 3.12 ± 1.25 % ID/g | % ID/g (4 h) Lung ([2]; Lung, 4 h): 1.1 ± 0.49 % ID/g | % ID/g (24 h) Lung ([2]; Lung, 24 h): 0.43 ± 0.14 % ID/g | % ID/g (72 h) Lung ([2]; Lung, 72 h): 0.13 ± 0.1 % ID/g | % ID/g (1 h) Muscle ([2]; Muscle, 1 h): 1.1 ± 0.3 % ID/g | % ID/g (4 h) Muscle ([2]; Muscle, 4 h): 0.27 ± 0.2 % ID/g | % ID/g (24 h) Muscle ([2]; Muscle, 24 h): 0.34 ± 0.3 % ID/g | % ID/g (72 h) Muscle ([2]; Muscle, 72 h): 0.011 ± 0.01 % ID/g | % ID/g (1 h) Pancreas ([2]; Pancreas, 1 h): 0.67 ± 0.28 % ID/g | % ID/g (4 h) Pancreas ([2]; Pancreas, 4 h): 0.24 ± 0.22 % ID/g | % ID/g (24 h) Pancreas ([2]; Pancreas, 24 h): 0.29 ± 0.21 % ID/g | % ID/g (72 h) Pancreas ([2]; Pancreas, 72 h): 0.02 ± 0.01 % ID/g | % ID/g (1 h) Spleen ([2]; Spleen, 1 h): 0.63 ± 0.19 % ID/g | % ID/g (4 h) Spleen ([2]; Spleen, 4 h): 0.58 ± 0.15 % ID/g | % ID/g (24 h) Spleen ([2]; Spleen, 24 h): 0.23 ± 0.11 % ID/g | % ID/g (72 h) Spleen ([2]; Spleen, 72 h): 0.06 ± 0.01 % ID/g | % ID/g (1 h) Stomach ([2]; Stomach, 1 h): 1.01 ± 0.82 % ID/g | % ID/g (4 h) Stomach ([2]; Stomach, 4 h): 0.58 ± 0.59 % ID/g | % ID/g (24 h) Stomach ([2]; Stomach, 24 h): 0.21 ± 0.08 % ID/g | % ID/g (72 h) Stomach ([2]; Stomach, 72 h): 0.04 ± 0.01 % ID/g | % ID/g (1 h) Tumor ([2]; Tumor, 1 h): 15.27 ± 8.72 % ID/g | % ID/g (4 h) Tumor ([2]; Tumor, 4 h): 19.97 ± 10.42 % ID/g | % ID/g (24 h) Tumor ([2]; Tumor, 24 h): 22.83 ± 1.14 % ID/g | % ID/g (72 h) Tumor ([2]; Tumor, 72 h): 18.07 ± 0.98 % ID/g | ratio of tumor AUC verse normal organ AUC ([2]; compared to ^177Lu—C2): significantly improved | % ID/g (1 h) Blood ([3]; 1 h): 16.51 ± 0.56 % ID/g | % ID/g (4 h) Blood ([3]; 4 h): 2.85 ± 1.23 % ID/g | % ID/g (24 h) Blood ([3]; 24 h): 0.06 ± 0.02 % ID/g | % ID/g (72 h) Blood ([3]; 72 h): 0.03 ± 0 % ID/g | % ID/g (120 h) Blood ([3]; 120 h): 0.01 ± 0 % ID/g
Compound: COc1cccc(OC)c1-c1cc(C(=O)NC2(C(=O)O)C3CC4CC(C3)CC2C4)nn1-c1ccc(OCCCN(C)CCCN(C)C(=O)CN2CCN(CC(=O)[O-])CCN(CC(=O)[O-])CCN(CC(=O)[O-])CC2)cc1C(C)C.[177Lu+3] (centres unmarked) [^177Lu-I-7]
stability of the labeled complex [1]: remained stable and no significant degradation was detected
